Source: US20070254856A1, “Use of acetylsalicylic acid (ASA) in the application of a membrane lung” (priority 2006, published 2007)

Columns and labels:
[1] = tested on: patient treated with the membrane lung NovaLung iLA; assay: application of the membrane lung NovaLung iLA on a patient receiving ASA; scanning electron microscope image of the gas exchange membrane; format: in vivo, human
Description: A patient who required treatment with the NovaLung iLA was administered 50 mg of ASA daily for 1 week before application of the membrane lung. This administration of 50 mg of ASA daily was initially maintained during application of the membrane lung, but the medicament was discontinued one week before removal of the membrane lung. […] FIG. 1 is a scanning electron microscope image of the gas exchange membrane from the membrane lung which was removed and dismantled after a period of use of 14 days on the patient thus treated and medicated.

platelet aggregation = platelet aggregation in the patient receiving ASA with NovaLung iLA treatment, standard clinical methods; format: in vivo, human
Description: The membrane lung NovaLung iLA itself was used in the manner described by Fischer el al., loc cit. The platelet aggregation was determined using standard clinical methods.

**Q.** For `CC(=O)Oc1ccccc1C(=O)O` [ASA, acetylsalicylic acid], which “deposition of blood constituents on the gas exchange membrane (scanning electron microscope image, FIG. 1)” value ([1]; 50 mg ASA daily oral, membrane lung removed after period of use of 14 days on the patient) is on record?
**A.** no deposition of blood constituents

**Q.** What about the “gas exchange performance and flow resistance of the membrane lung to the blood stream” value ([1]; 50 mg ASA daily, membrane lung left on the patient for 2 weeks) of the same molecule?
**A.** without an appreciable reduction in gas exchange performance or an appreciable increase in the flow resistance

**Q.** And the “platelet aggregation (FIG. 3)” value (platelet aggregation; 50 mg ASA daily, during the second week of ASA administration)?
**A.** remained at its reduced value

**Q.** And the “platelet aggregation (FIG. 3)” value (platelet aggregation; 50 mg ASA daily, within the first week of ASA administration, when the membrane lung was connected)?
**A.** below 20%

**Q.** What about the “platelet aggregation (FIG. 3)” value (platelet aggregation; two weeks after start of treatment with the membrane lung, 1 week after discontinuation of ASA) of the same molecule?
**A.** below 30%
